The text below walks through data of a melting point compilation (Tetko et al.; mined from patent text by program, amines drawn as free bases though some values may be those of a salt).

What is called melting point is the temperature of the solid-liquid transition.

Turning to `Cc1cc2c(c(C)c1S(=O)(=O)C[N+](=O)[O-])CCCO2`, the melting point was 136 to 138 °C. `COC(=O)NCCCn1c(-c2ccc(Br)cc2)csc1=Nc1ccccc1` gave a melting point of 132 to 134 °C.

Consider `CCCCCCc1ccc(-n2c(-c3ccc(C)cc3)cc(OC)c2-c2ccc(C)cc2)cc1`, for which the melting point is 128 to 130 °C. The value for `CC(C)Oc1nc(N)nc2c1ncn2C1CC(N=[N+]=[N-])C(CO)O1` (configuration not stated) was 195 to 197 °C; that for `O=CN1CCN(C2=C(Cl)C(=O)c3nsnc3C2=O)CC1` was 191 to 194 °C; that for `COc1ccc2[nH]c3c(c2c1)CCN1CN(C)CCC31` (configuration not stated) was 199 to 200 °C.

On to `COc1ccc(Cn2c(=O)[nH]c3ncccc3c2=O)cc1`, for which the melting point was 272 to 273 °C. The value for `COC(=O)c1ccc(/C=C/C(=O)O)c(Cl)c1` was 221 °C; that for `COc1ccc(CC(C(=O)O)S(C)(=O)=O)cc1C(=O)NCc1ccc(C(F)(F)F)cc1` (configuration not stated) was 158 to 159 °C. The value for `Cc1ncnc(O)c1Cl` was 250 to 251 °C; that for `CC(C)c1cn2cccc(CO)c2n1` was 97 to 99 °C. On to `O=[N+]([O-])c1cccc(C2=NOCCS2)c1`, for which the melting point fell in the range of 114 to 115 °C. The value for `CC(C)(C)C(=O)C(Br)Oc1ccc(Cl)cc1Cl` (configuration not stated) was 70 °C. The value for `Cc1cc(Br)cnc1CCCCNc1ncc(Cc2cccnc2)cc1[N+](=O)[O-]` was 82 to 84 °C; that for `O=C(O)[C@H]1CC[C@@H](C(=O)N(Cc2ccccc2)OCc2ccccc2)C1` (relative stereo) was 118 to 120 °C. The value for `CN1CC(c2cc(CCc3ccc(F)cc3)ccn2)=C(O)C1=O` was 167 to 168 °C; that for `CS(=O)(=O)Nc1ccc(Cn2c(=O)n(Cc3ccc(C(F)(F)F)cc3)c3ccccc32)cc1` was 193 to 197 °C. `CCCOC(=O)C(C)NC(=O)C(CC(=O)O)NC(=O)C(C)N` (configuration not stated) returned a melting point of 223 to 225 °C.

Take `CC(=O)OC(c1cc2n(n1)CCOC2=O)C1(Br)C(=O)N2C(C(=O)OCc3ccc([N+](=O)[O-])cc3)=CSC21` (configuration not stated): the melting point was in the range of 107 to 110 °C. The value for `COC(C(=O)O)c1ccc2nc(-c3ccc(Cl)cc3)oc2c1` (configuration not stated) was 164 to 166 °C. With `Cc1cccc(-c2[nH]c(C(C)C)nc2-c2ccc(F)c(-c3c[nH]c(C)n3)c2)n1`, the melting point was 230 to 234 °C. Compound `COC(=O)C(C)=CC=P(c1ccccc1)(c1ccccc1)c1ccccc1` had a melting point of 145 to 150 °C. In turn, `CCc1cc(-c2[nH]c3ccccc3c2CC)cc(CC)c1O` yielded a melting point of 96.3 to 96.7 °C. The value for `O=Cc1ccc(Sc2nc3cc(F)c(F)cc3[nH]2)o1` was 133 °C; that for `CCCNC(=O)CC1(C)Cc2c(C)c(N3CCN(c4ccc(OC)cc4)CC3)c(C)c(C)c2O1` (configuration not stated) was 135 to 138 °C; that for `COc1cccc2c1N(CCCO)Cn1cc(CO)cc1-2` was 116 to 118 °C. `O=CN(O)C1(CS(=O)(=O)c2ccc(Oc3ccc(OC(F)(F)F)cc3)cc2)CCC(C(=O)O)CC1` (configuration not stated) displayed a melting point of 207 °C. The value for `Cc1cccc(C2=CCN(c3ccc(F)nn3)CC2)c1` was 105 °C; that for `Cc1ccc(Oc2ccccc2-c2noc(=O)[nH]2)c(O)c1` was 213 to 214 °C; that for `COC(=O)C(=O)c1ccc(OCCCCOc2ccc3ccccc3c2)cc1` was 93 to 95 °C. The value for `COc1ccc(S(=O)(=O)N(C)CP(=O)(O)O)cc1N` was 218 to 220 °C. The value for `Clc1ccc2c(c1)C(c1ccccc1)=NCc1ccccc1-2` was 118 to 119 °C. Regarding `CCC(=O)NCCc1c[nH]c2ccc(OCc3ccccc3)cc12`, the melting point is 110 to 112 °C. The value for `O=C1C(=Cn2ccnc2)CSc2ccccc21` was 139 to 140 °C. `Cc1cc(C(=O)O)nc(-c2ccc([N+](=O)[O-])cc2)c1` gave a melting point of 216 to 219 °C. The value for `CCOC(=O)C1=C(C)N=C(SCc2ccc(OC)cc2)N(C(=O)OCC)C1c1cccc(C#N)c1` (configuration not stated) was 85 to 87 °C; that for `N#Cc1ccc(-c2cc3ccccc3[nH]2)cc1` was 201 °C; that for `CC(O)(CCCC(F)(F)C(F)(F)C(F)(F)C(F)(F)C(F)(F)C(F)(F)F)CCCC(F)(F)C(F)(F)C(F)(F)C(F)(F)C(F)(F)C(F)(F)F` was 46 to 47 °C. The value for `CCC/C=C/C(=O)NC(=O)OC(C)(C)C` was 71 to 72 °C. The compound `Cc1ccc(NC(=O)c2ccc(C(=O)Nc3ccccc3N)nc2)cc1Nc1nccc(-c2cccnc2)n1` displayed a melting point of 150 to 152 °C. The value for `COc1cc2c(cc1F)C1(CO2)C(=O)N(Cc2ccccn2)c2ccccc21` (configuration not stated) was 142 to 144 °C; that for `CCC(C(c1ccc(OC)cc1)c1ccc(C(C)(C)C)cc1)[N+](=O)[O-]` (configuration not stated) was 114 to 116 °C. On to `COc1ncc(Nc2nc(N3CCOCC3)nc(-n3c(C(F)F)nc4c(OC)cccc43)n2)cn1`, for which the melting point was in the range of 255 to 258 °C. The value for `O=C(c1ccc(Br)cc1)c1cccc([N+](=O)[O-])c1` was 104 to 105 °C; that for `CCCCCCCC(=O)C=Cc1ccc(O)c(OC)c1` was 45 °C; that for `CCN1CCCC(NC(=O)Cn2c(-c3ccc(Br)cc3)nc3cccnc32)C1` (configuration not stated) was 190 to 192 °C.

Turning to `CC(C)(C)c1cc(C=C2CON(C(N)=O)C2=O)cc(C(C)(C)C)c1O`, the melting point is 178 to 181 °C. For the compound `COc1cccc(C2=C(CC(C)N3CCCCC3)C(=O)N(C)CCC2)c1` (configuration not stated), the melting point was 101 to 103 °C. The value for `O=C(Nc1ccc(-n2nc(C(F)(F)F)nc2Cl)cc1)c1ccncc1F` was 167 to 170 °C; that for `COc1cccc(C(C[N+](=O)[O-])C2CCCCC2=O)c1` (racemic) was 125 to 126 °C. Consider `CCOC(=O)CCCOc1ccc(C(=O)Nc2ccccc2S(=O)(=O)c2ccccc2-c2nnn[nH]2)cc1`, for which the melting point fell in the range of 182 to 184 °C.

Compound `CN1CCC(c2c[nH]c3ccc(OS(=O)(=O)c4c(F)cccc4F)cc23)CC1` gave a melting point of 214 to 215 °C.

With `CN1C(=O)[C@H](NC(=O)CCc2ccccc2Cl)N=C(c2ccccc2)c2ccccc21`, the melting point fell in the range of 158 to 160 °C. Take `CC(=O)N[C@@H](Cc1ccc(Oc2sc(C(N)=O)c3c2-c2c(cnn2C)CC3)cc1)C(=O)N1CCOCC1`: the melting point lay within 139 to 140 °C. Consider `CC(C)c1cccc(-n2cnc(CO)c2)c1`, for which the melting point is 76 to 77 °C. The value for `CC(C)c1n[nH]c2c(NCc3ccccc3)ncnc12` was 153 to 154 °C.

On to `COc1c(OCc2ccccc2)ccc2cc[nH]c12`, for which the melting point was in the range of 66 to 67 °C. For the compound `Cc1sc(NC(=O)OC(C)(C)C)c(NC(=O)OC(C)(C)C)c1C#N`, the melting point is above 300 °C. For the compound `COC(=O)C(O)=CC(=O)c1cn(Cc2ccc(F)cc2)c(=O)n(Cc2ccc(F)cc2)c1=O`, the melting point fell in the range of 171 to 173 °C.

Turning to `CCCCc1nc(Cl)c(CC(=O)OCC)c(Cc2ccc(C(=O)O)cc2)n1`, the melting point worked out at 130 °C. `Cn1ncc(N2CCCC2)c(-c2ccccc2C=O)c1=O` registered a melting point of 140 to 141 °C.

`COc1ccc(-c2nc3cnc4ccccc4c3n2CC(C)C)cc1OC` yielded a melting point of 192 to 199 °C. The value for `O[C@H]1c2cc3ccccc3cc2[C@H](O)c2cc3ccccc3cc21` was 235 °C. As to `COc1ccc(C(=CC#N)c2cccc([N+](=O)[O-])c2)cc1OC`, the melting point was 118 to 120 °C. The value for `Oc1ncc(Br)cc1C(F)(F)F` was 160 to 162 °C; that for `CCCn1ccnc(S(=O)(=O)Cc2ccc(Cl)cc2)c1=O` was 125 to 128 °C. The value for `CCOC(=O)c1cnc2cc(C(C)(C)C)ccc2c1O` was 279 to 281 °C; that for `N#Cc1cnc2c(c1Nc1cccc(Br)c1)C=C1N=CN=C1C2` was 286 to 288 °C; that for `COc1c(N2CCNCC2)c(F)cc2c(=O)c(C(=O)O)cn(C3CC3)c12` was 177 to 178 °C. As for `COc1cccc(CN2CCC3(CC2)CSC2=C(O3)c3ccccc3C(=O)C2=O)c1`, the melting point fell in the range of 129 to 131 °C. The value for `CCOC(=O)c1cnn2c1nc(N(CC)CC)c1cnc3c(cnn3CC)c12` was 170 to 172 °C. The value for `CCOC(=O)CNC(=O)c1cn2nc(Cl)ccc2n1` was 190 to 191 °C; that for `O=c1c2ccc(-c3nnn[nH]3)cc2[nH]c2ccc(-c3nnn[nH]3)cc12` was above 350 °C. With `O=c1[nH]c(=Cc2ccc(OCc3ccccc3)cn2)c(=O)[nH]c1=CCc1ccccc1`, the melting point lay within 223 to 225 °C. For the compound `CSCCNC(=O)c1cccc(-c2cccc(Oc3cc(Cl)cc(Cl)c3)n2)c1`, the melting point was in the range of 123 to 124 °C. The value for `CN(C)c1nc(NCc2ccc(NC(=O)C3CCN(Cc4ccccc4)CC3)cc2)c2ccc(I)cc2n1` was 194 °C; that for `CC(C)(C)OC(=O)[C@@H](C(N)c1ccccc1)[C@@H](O)C[C@@H](Cc1ccccc1)c1ncc2n1C(O)C(C)(C)C2=O` (some centres not stated) was 88 to 90 °C; that for `CCC(CC)n1nnc2cc(C)c(C)c([N+](=O)[O-])c21` was 106 to 108 °C.

As to `COC(=O)c1ccc(Oc2nn(Cc3ccccc3)c3ccccc23)o1`, the melting point was 89 to 91 °C. The value for `Nc1c([N+](=O)[O-])cc(Br)c2c1CN(Cc1ccc(C(F)(F)F)cc1)CC2` was 119 to 120 °C. In the case of `N#Cc1cnc2cc(-c3ccc(C=O)cc3)sc2c1Nc1ccc(Oc2ccccc2)cc1`, the melting point is 230 to 232 °C. The value for `O=C(CNCc1cccc(-c2ccc(CC(Nc3ccccc3C(=O)c3ccccc3)C(=O)O)cc2)c1)c1ccccc1` (configuration not stated) was 90 °C; that for `CCOC(=O)c1cc(Br)c(OCCO)c(-c2cccc(Cl)c2)c1` was 108 to 110 °C. The compound `CCOC(=O)C1=C(COCCN)NC=C(C(=O)OC)C1c1cccc(C(F)(F)F)c1Cl` (configuration not stated) showed a melting point of 122 °C. The value for `CCCCC/C(=C\C=C\C(=O)O)c1cccc(F)c1` was 84 to 85.5 °C. The value for `Oc1cccnc1SCc1ccccc1` was 103 to 104 °C; that for `C=CCOC(=O)CC(C(C)=O)S(=O)(=O)c1ccccc1` (configuration not stated) was 62 to 64 °C.
